Assay results as given in paper PMC7714071, “Interaction of amyloid beta with humanin and acetylcholinesterase is modulated by ATP” (FEBS Open Bio, 2020).

Assays:
[1] = system: Aβ cytotoxicity; conditions: cited from earlier work
Source text: Almost all types of cells produce amyloid beta (Aβ), a peptide well recognized for its role in the development and progression of different stages of Alzheimer's disease (AD). The Aβ peptide is ~ 4 kDa and derived from the sequential processing of the higher molecular weight amyloid precursor protein by two membrane‐bound endoproteases, β‐ and γ‐secretase. Different C‐terminal Aβ heterogeneity results from processing by γ‐secretase, where Aβ40 represents the most abundant isoform (~ 90%) as compared to Aβ42 (~ 10%). Self‐assembled Aβ40/42 peptides into amyloid fib ... || Soluble oligomers of proteins implicated in different diseases are primarily thought to be the main toxic form as opposed to the larger fibrillar assemblies. Aβ regions containing Tyr and Ser (H6DSGY10 and G25SNKG29) (Fig. 1) along with post‐translational modifications of these regions, have been implicated in misfolding, oligomerization, or fibril formation of Aβ [5, 10, 11, 16, 41]. […] Aβ proteins a ... || Acetylcholinesterase (AChE) is an enzyme known for its role in terminating acetylcholine‐mediated neurotransmission at the synaptic cleft. The majority of the cortical AChE in the Alzheimer's brain is mainly associated with the amyloid core of senile plaques. […]

[2] = system: Aβ40; conditions: versus Aβ42; cited from earlier work
Source text: Almost all types of cells produce amyloid beta (Aβ), a peptide well recognized for its role in the development and progression of different stages of Alzheimer's disease (AD). The Aβ peptide is ~ 4 kDa and derived from the sequential processing of the higher molecular weight amyloid precursor protein by two membrane‐bound endoproteases, β‐ and γ‐secretase. Different C‐terminal Aβ heterogeneity results from processing by γ‐secretase, where Aβ40 represents the most abundant isoform (~ 90%) as compared to Aβ42 (~ 10%). Self‐assembled Aβ40/42 peptides into amyloid fib ... || Humanin (HN) is a secreted 21‐ to 24‐amino acid mitochondrial‐derived peptide. Certain amino acid residues in HN have been identified to be involved in different functions, including binding to Aβ [55, 56]. […] HN was identified previously as a binding partner of Aβ, likely modulating its aggregation pathways and counteracting its deleterious effects. […] The specific epitopes at the binding interface between HN and Aβ40 were identified, by proteolytic epitope excision and extraction in addition to affinity–mass spectrometric data analysis, to be HN (5–15) and Aβ (17–28). […] Inhibiting the 17–28 region of Aβ reduced aggregation of the neurotoxic amyloid fibrils and related cytotoxicity in SH‐SY5Y, a human neuroblastoma cell ... || (+ 1 further places)

[3] = ELISA, binding of biotinylated-Aβ to immobilised HS; set-up: species or system bovine; conditions: HS 100 nM on wells, increasing biotinylated-Aβ; single binding site model; mean ± SD of three independent experiments in triplicate; Fig. 2A
Method: ELISAs were carried out as we previously reported. Nunc MaxiSorp 96‐well flat bottom plate (Thermo Fisher) wells were coated with samples as indicated. The plates were incubated overnight at 4 °C on a shaker to allow binding of the samples to the plate wells. After the incubation, the wells were washed 4× with TBST, filled with 400 µL blocking buffer (110 mM KCl, 5 mM NaHCO3, 5 mM MgCl2, 1 mM EGTA, 0.1 mM CaCl2, 20 mM HEPES, 1% BSA, pH 7.4), and incubated with shaking overnight at 4 °C. The wells were then washed 4× with TBST, and 100 µL of sample at the desired concentration was added to each well and incubated with shaking overnight at 4 °C. TBST was then used to wash the wells 4× before proceeding in one of two ways: (a) biotinylated samples were analyzed by adding 100 µL streptavidin–HRP conjugate in TBST (1 : 2500 dilution) to the samples followed by incubation for 3 h at RT on a shaker, or (b) samples without biotin were analyzed by adding 100 µL TBST containing the primary antibody as per the manufacturer's recommendation, incubating for 3 h at RT on a shaker, followed by washing the wells 4× with TBST. […] The reaction was stopped with 100 µL 2 M H2SO4 after incubating at RT for 0.5–15 min, resulting in a yellow color change, measured by absorbance at 450 nm. […] Statistical analysis was determined by the […] […] Data were expressed as the mean ± SD. […]

[4] = system: Aβ in A549 cell-conditioned media; assay: ELISA, oligomer versus total Aβ in A549 cell-conditioned media; assay type: cell-based, human; conditions: non-depleted A549 media; Fig. 8A
Method: (§1) Aβ ELISAs were carried out according to previous protocols for determining the oligomeric and monomeric concentrations of Aβ and as we recently reported. Briefly, total Aβ (monomers + oligomers) was measured by two‐site binding ELISAs using the capture 6E10 monoclonal antibody and 4G8‐conjugated biotin as the detection antibody, which recognizes a distinct epitope, then quantitated using streptavidin‐HRP.
(§2) Using the same samples, oligomerized Aβ was measured by a single‐site ELISA in which antibodies targeting the same primary sequence epitope were used for both capture (4G8) and detection (4G8‐biotin). Only oligomers are detected with this approach since the 4G8‐biotin antibody cannot bind to the captured monomer because the epitope is blocked by the 4G8 capture antibody. Therefore, only oligomeric or multimeric Aβ containing additional exposed 4G8 epitopes, not engaged by the capture antibody, are reported by the streptavidin–HRP. The amount of the monomer was then estimated as the difference between the concentration of total Aβ and the concentration of the oligomer.
(§3) Conditioned media were immunodepleted (ID) according to the methods previously described and our recently published report. Briefly, specific antibodies were bound to ELISA wells overnight (1 : 1000 dilution). The wells were then blocked and washed, then 300 μL of the conditioned medium (0.5 μg·μL^−1) treated as indicated, 72 h postserum starvation, was incubated with the antibodies bound to ELISA wells for 24 h. The ID media were then carefully removed and analyzed for the presence of the target protein or peptide by ELISA. The same amount of protein (3 µL of 600 µg·mL^−1 total protein) of each sample was analyzed in the experiments. Significant depletion (95–100%) was observed upon using each of the antibodies employed in this study.
(§4) Both epitopes recognized by the 6E10 and 4G8 antibodies have been previously shown to be exposed in Aβ aggregates. […] To determine the effect of ID of AChE or HN on this ratio in the absence or presence of added ATP, 0.2 × 10^5 cells per well were seeded in 96‐well plates in 10% FBS‐supplemented media. The next day, the cells were incubated in serum‐free medium for 72 h, then ID of AChE or HN as described in Materials and methods. The antibodies 6E10 or 4G8 were bound (1 : 1000 dilution) to ELISA wells (Fig. 8). The wells were blocked, and then incubated with 300 μL of the ID medium (0.5 μg·μL^−1). Biotin‐4G8 was then added and the signal processed as described in Materials and methods section. Fold change relative to controls using anti‐6E10 or anti‐4G8 antibodies incubated with 300 μL of the medium not incubated with cells was calculated.
(§5) Cells (0.2 × 10^5) were grown in 10% FBS‐supplemented media for 24 h. The cells were then incubated in serum‐free medium for 72 h without or with ATP and the media collected and ID from either HN or AChE as described in Materials and methods section. The antibodies 6E10 or 4G8 were bound (1 : 1000 dilution) to ELISA wells. The wells were blocked, and then incubated with 300 μL of the control and ID medium (0.5 μg·μL^−1). Biotin‐4G8 was then added and the signal processed as described in Materials and methods section. Fold change relative to controls using anti‐6E10 and anti‐4G8 antibodies and 300 μL of the medium not incubated with cells was calculated. Data were processed using the […] 8.4.3 software. The graphs summarize the results expressed as means ± SD of three separate experiments, each performed in triplicate. […]

[5] = system: human lung adenocarcinoma xenografts; conditions: direct injection into xenografts; cited from earlier work
Source text: A rapidly growing body of evidence has recently steadily emerged showing that AD patients might have a reduced risk and some protection against certain cancers. […] Experimental evi ...

[6] = system: Aβ in H1299 cell-conditioned media; assay: ELISA, oligomer versus total Aβ in H1299 cell-conditioned media; assay type: cell-based, human; conditions: non-depleted H1299 media; Fig. 8B
Method: as §1, §2, §3, §4, §5

[7] = system: Aβ; conditions: physiological intracellular concentrations, enhanced by magnesium; cited from earlier work
Source text: Soluble oligomers of proteins implicated in different diseases are primarily thought to be the main toxic form as opposed to the larger fibrillar assemblies. Aβ regions containing Tyr and Ser (H6DSGY10 and G25SNKG29) (Fig. 1) along with post‐translational modifications of these regions, have been implicated in misfolding, oligomerization, or fibril formation of Aβ [5, 10, 11, 16, 41]. […] In addition to ATP, the glycosaminoglycan, heparan sulfate (HS), has been previously reported to i ... || Access to the central domain of Aβ (residues 17–24) flanked by Lys‐16 and Lys‐28, known to be a critical structural element in fibrillar Aβ aggregates, might be regulated by binding of AChE and HN to their overlapping binding sites on Aβ. […] Moreover, we s ...

[8] = system: Aβ42; conditions: in brains of AD patients; cited from earlier work
Source text: Almost all types of cells produce amyloid beta (Aβ), a peptide well recognized for its role in the development and progression of different stages of Alzheimer's disease (AD). The Aβ peptide is ~ 4 kDa and derived from the sequential processing of the higher molecular weight amyloid precursor protein by two membrane‐bound endoproteases, β‐ and γ‐secretase. Different C‐terminal Aβ heterogeneity results from processing by γ‐secretase, where Aβ40 represents the most abundant isoform (~ 90%) as compared to Aβ42 (~ 10%). Self‐assembled Aβ40/42 peptides into amyloid fib ... || Amino acid residues involved in direct interactions between HN and Aβ40 were identified previously by molecular modeling. The specific epitopes at the binding interface between HN and Aβ40 were identified, by proteolytic epitope excision and extraction in addition to affinity–mass spectrometric data analysis, to be HN (5–15) and Aβ (17–28). […] Inhibiting the 17–28 region of Aβ reduced aggregation of the neurotoxic amyloid fibrils and related cytotoxicity in SH‐SY5Y, a human neuroblastoma cell ... || Acetylcholinesterase (AChE) is an enzyme known for its role in terminating acetylcholine‐mediated neurotransmission at the synaptic cleft. The majority of the cortical AChE in the Alzheimer's brain is mainly associated with the amyloid core of senile plaques. […]

[9] = system: Aβ; conditions: cited from earlier work

Q: With Aβ40 as the compound, how does the “toxicity relative to Aβ42” value [1] read?
A: Its value is “lower toxicity”.

Q: What about the “aggregation kinetics of Aβ40” value [2] of the same compound?
A: The value was “lower aggregation kinetics”.

Q: What about the “binding affinity of Aβ for HS” value [3] of the same compound?
A: The value was “comparable affinities”.

Q: Which results are given for amyloid beta [Aβ]?
A: oligomer relative to total Aβ [4]: ~ 63%; tumor growth [5]: suppress tumor growth in mice; oligomer relative to total Aβ [6]: ~ 48%

Q: For `Nc1ncnc2c1ncn2[C@@H]1O[C@H](COP(=O)(O)OP(=O)(O)O)[C@@H](O)[C@H]1O` [ADP], which “effect on misfolding of Aβ” value [7] is on record?
A: Its value is “reduced misfolding of Aβ”.

Q: For Aβ42, which “binding affinity of Aβ for HS” value [3] is on record?
A: The value was “comparable affinities”.

Q: And the “aggregation kinetics of Aβ42” value [8]?
A: Its value is “faster aggregation kinetics”.

Q: With biotinylated‐HN as the compound, how does the “binding of biotinylated-HN to Aβ versus HN” value [9] read?
A: The value was “indistinguishable”.
